In ChEMBL document CHEMBL1157561, “Identification of potent pyrazolo[4,3-h]quinazoline-3-carboxamides as multi-cyclin-dependent kinase inhibitors” (J Med Chem, 2010):
≈ marks a conversion by molar mass, not a printed value.

Legend:
[1] = system: A2780; assay: Antiproliferative activity against human A2780 cells after 72 hrs by cell-titer-glo assay; type: functional, cell-based; conditions: A2780, 72 h
[2] = Solubility at pH 7.0; type: physicochemical; conditions: buffer
[3] = biological target: Cyclin-dependent kinase 2/cyclin A (Homo sapiens, UniProt P24941); assay: Inhibition of CDK2/Cyclin A; type: protein-complex assay
[4] = biological target: T1, Aurora kinase A (Homo sapiens, UniProt O14965); assay: Inhibition of Aurora A
T1 sequence (O14965 whole entry): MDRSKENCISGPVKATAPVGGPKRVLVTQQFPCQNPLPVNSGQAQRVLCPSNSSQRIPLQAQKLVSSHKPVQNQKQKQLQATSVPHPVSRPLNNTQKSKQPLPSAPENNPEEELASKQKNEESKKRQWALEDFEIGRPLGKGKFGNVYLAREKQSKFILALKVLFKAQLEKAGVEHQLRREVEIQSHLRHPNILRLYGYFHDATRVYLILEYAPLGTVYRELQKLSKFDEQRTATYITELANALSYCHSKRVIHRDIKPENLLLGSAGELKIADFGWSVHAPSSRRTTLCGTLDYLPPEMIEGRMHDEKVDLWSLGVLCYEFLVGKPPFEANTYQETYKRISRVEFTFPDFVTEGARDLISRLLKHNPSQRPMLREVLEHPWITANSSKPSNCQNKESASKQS

SMILES	IC50 [1] [nM]	solubility [2] [µM]	IC50 [3] [nM]	IC50 [4] [nM]
Cn1nc(C(N)=O)c2c1-c1nc(N)ncc1CC2	2200	> 225	> 10000	> 10000
CN1CCN(C(=O)c2nn(C)c3c2CCc2cnc(NC4CCCC4)nc2-3)CC1	506	83 (≈ 32.8 µg/mL)	> 10000	> 10000
COc1ccc(-n2nc(C(N)=O)c3c2-c2nc(NC4CCCC4)ncc2CC3)cc1	557	< 1	6	2310
Cn1nc(C(N)=O)c2c1-c1nc(NCCN3CCOCC3)ncc1CC2	8660	214 (≈ 76.5 µg/mL)	209	> 10000
CN1CCN(c2cccc(CNc3ncc4c(n3)-c3c(c(C(N)=O)nn3C)CC4)c2)CC1	920	210 (≈ 90.8 µg/mL)	104	2140
Cn1nc(C(=O)N(O)Cc2ccccc2)c2c1-c1nc(NC3CCCC3)ncc1CC2	6140	< 1	1370	4560
Cn1nc(C(=O)N(O)C2CCCCC2)c2c1-c1nc(NC3CCCC3)ncc1CC2	3970	< 1	296	3840
NC(=O)c1nn(-c2ccc(S(N)(=O)=O)cc2)c2c1CCc1cnc(NC3CCCC3)nc1-2	1000	108 (≈ 49 µg/mL)	5	442
CNC(=O)c1nn(C)c2c1CCc1cnc(NC3CCN(C)CC3)nc1-2	> 10000	220 (≈ 78.2 µg/mL)	4590	> 10000
Cn1nc(C(N)=O)c2c1-c1nc(NCCN3CCCCC3)ncc1CC2	7600	182 (≈ 64.7 µg/mL)	2490	> 10000
